This is an account of results in patent US8119692B2 (priority 2007, dated 2012).

For the assay, the target named is Lethal factor protease (Bacillus anthracis, UniProt P15917). In words: biochemical. Particulars: LF (FRET) Ki^app.
Sequence of Lethal factor protease (P15917 34-809 limits assumed): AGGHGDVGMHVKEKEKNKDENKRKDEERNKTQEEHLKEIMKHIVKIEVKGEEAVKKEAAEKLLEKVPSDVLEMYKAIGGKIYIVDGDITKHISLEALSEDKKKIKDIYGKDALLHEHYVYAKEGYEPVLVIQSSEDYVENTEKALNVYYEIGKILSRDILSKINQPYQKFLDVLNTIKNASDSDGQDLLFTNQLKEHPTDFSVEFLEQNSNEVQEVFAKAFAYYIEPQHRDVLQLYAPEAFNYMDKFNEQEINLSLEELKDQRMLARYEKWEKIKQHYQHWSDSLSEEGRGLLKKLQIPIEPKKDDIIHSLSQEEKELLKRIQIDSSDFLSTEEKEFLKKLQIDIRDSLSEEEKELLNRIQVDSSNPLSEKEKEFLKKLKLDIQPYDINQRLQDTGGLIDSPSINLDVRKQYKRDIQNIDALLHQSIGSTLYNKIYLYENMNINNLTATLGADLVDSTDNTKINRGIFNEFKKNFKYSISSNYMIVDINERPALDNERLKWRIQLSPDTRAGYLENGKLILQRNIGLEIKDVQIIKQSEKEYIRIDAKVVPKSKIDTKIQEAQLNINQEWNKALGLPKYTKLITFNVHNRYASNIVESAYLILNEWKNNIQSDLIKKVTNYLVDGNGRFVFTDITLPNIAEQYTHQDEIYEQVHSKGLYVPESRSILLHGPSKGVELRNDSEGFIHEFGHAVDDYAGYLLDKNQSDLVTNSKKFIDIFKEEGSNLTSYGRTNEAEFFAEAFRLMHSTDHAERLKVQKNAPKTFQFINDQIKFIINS
In turn, `CO[C@H](C[C@H](CCCCN1CCN(Cc2ccccc2)CC1)C(=O)NO)c1ccc(F)cc1` [Compound 168226, (S)-6-(4-benzylpiperazin-1-yl)-2-((R)-2-(4-fluorophenyl)-2-methoxyethyl)-N-hydroxyhexanamide] displayed a Ki of 580 nM. The same measure for `CO[C@H](C[C@H](CCN(C)CCN(C)c1ccccc1)C(=O)NO)c1ccc(F)cc1` [Compound 168058, (2S,4R)-4-(4-fluorophenyl)-N-hydroxy-4-methoxy-2-(2-(methyl(2-(methyl(phenyl)amino)ethyl)amino)ethyl)butanamide]: 780 nM; for `CCCCN(C)CC[C@@H](C[C@@H](OC)c1ccc(F)cc1)C(=O)NO` [Compound 167828, (2S,4R)-2-(2-(butyl(methyl)amino)ethyl)-4-(4-fluorophenyl)-N-hydroxy-4-methoxybutanamide]: 1100 nM; for `CO[C@H](C[C@H](CCN1CCNCC1)C(=O)NO)c1ccc(F)cc1` [Compound 167955, (2S,4R)-4-(4-fluorophenyl)-N-hydroxy-4-methoxy-2-(2-(piperazin-1-yl)ethyl)butanamide]: 830 nM. The same measure for `C=CC[C@H](C[C@@H](OC)c1ccc(F)c(C)c1)C(=O)NO` [Compound 167672, (2R)-2-((2R)-2-(4-fluoro-3-methylphenyl)-2-methoxyethyl)-N-hydroxypent-4-enamide]: 42000 nM; for `CO[C@@H](C[C@@H](CCCc1ccccc1)C(=O)NO)c1ccc(F)cc1` [Compound 167341, (2R)-2-((2S)-2-(4-fluorophenyl)-2-methoxyethyl)-N-hydroxy-5-phenylpentanamide]: 18000 nM; for `COC(CCC(=O)NO)c1ccc(F)c(C)c1` (centres unmarked) [Compound 167232, 4-(4-fluoro-3-methylphenyl)-N-hydroxy-4-methoxybutanamide]: 8900 nM. In turn, `O=C(CCC(O)c1ccc(F)cc1)NO` (racemic) [Compound 166976, 4-(4-fluorophenyl)-N,4-dihydroxybutanamide] displayed a Ki of 138000 nM. The same measure for `CO[C@H](C[C@H](CCN1CCc2ccccc2C1)C(=O)NO)c1ccc(F)cc1` [Compound 167891, (2S,4R)-2-(2-(3,4-dihydroisoquinolin-2(1H)-yl)ethyl)-4-(4-fluorophenyl)-N-hydroxy-4-methoxybutanamide]: 920 nM; for `CCCC[C@H](C[C@@H](OC)c1ccc(F)cc1)C(=O)NO` [Compound 167353, (2R)-2-((2R)-2-(4-fluorophenyl)-2-methoxyethyl)-N-hydroxyhexanamide]: 5800 nM. The same measure for `CO[C@H](C[C@H](CCN1CCC(F)(F)CC1)C(=O)NO)c1ccc(F)cc1` [Compound 167884, (2S,4R)-2-(2-(4,4-difluoropiperidin-1-yl)ethyl)-4-(4-fluorophenyl)-N-hydroxy-4-methoxybutanamide]: 2200 nM; for `CO[C@H](C[C@H](CCN(C)Cc1cccc(-c2ccc(F)c(C)c2)c1)C(=O)NO)c1ccc(F)cc1` [Compound 168003, (2S,4R)-2-(2-(((4′-fluoro-3′-methylbiphenyl-3-yl)methyl)(methyl)amino)ethyl)-4-(4-fluorophenyl)-N-hydroxy-4-methoxybutanamide]: 2300 nM; for `COC(CC(CCc1ccccc1)C(=O)NO)c1ccc(F)cc1` (centres unmarked) [Compound 167308, 4-(4-fluorophenyl)-N-hydroxy-4-methoxy-2-phenethylbutanamide]: 2400 nM. The same measure for `CO[C@H](C[C@H](CCN(C)CCN(C)CCCc1ccccc1)C(=O)NO)c1ccc(F)cc1` [Compound 168082, (2S,4R)-4-(4-fluorophenyl)-N-hydroxy-4-methoxy-2-(2-(methyl(2-(methyl(3-phenylpropyl)amino)ethyl)amino)ethyl)butanamide]: 820 nM; for `O=C(CC[C@@H](O)c1ccc(F)cc1)NO` [Compound 167206, (R)-4-(4-fluorophenyl)-N,4-dihydroxybutanamide]: 66100 nM; for `CO[C@H](C[C@H](CCN(C)C)C(=O)NO)c1ccc(F)cc1` [Compound 167954, (2S,4R)-2-(2-(dimethylamino)ethyl)-4-(4-fluorophenyl)-N-hydroxy-4-methoxybutanamide]: 970 nM. As to `CO[C@H](C[C@H](CCCCNCc1cccs1)C(=O)NO)c1ccc(F)cc1` [Compound 168223], the Ki is 210 nM.

Regarding `CO[C@H](C[C@H](CCN(C)CCc1ccccc1)C(=O)NO)c1ccc(F)cc1` [Compound 167952, (2S,4R)-4-(4-fluorophenyl)-N-hydroxy-4-methoxy-2-(2-(methyl(phenethyl)amino)ethyl)butanamide], the Ki amounted to 770 nM.

Consider `CO[C@H](C[C@H](CCCCNCc1ccc(Oc2ccccc2)cc1)C(=O)NO)c1ccc(F)cc1` [Compound 168224, (S)-2-((R)-2-(4-fluorophenyl)-2-methoxyethyl)-N-hydroxy-6-(4-phenoxybenzylamino)hexanamide], for which the Ki worked out at 230 nM. For `CO[C@H](C[C@H](CCCCNCCc1ccc(F)cc1)C(=O)NO)c1ccc(F)cc1` [Compound 168221], the Ki was found to be 280 nM.

`CO[C@H](C[C@H](CCN1CCN(Cc2ccccc2)CC1)C(=O)NO)c1ccc(F)cc1` [Compound 167962, (2S,4R)-2-(2-(4-benzylpiperazin-1-yl)ethyl)-4-(4-fluorophenyl)-N-hydroxy-4-methoxybutanamide] returned a Ki of 1900 nM. `CO[C@H](C[C@H](CCCCN(C)Cc1ccc(F)cc1)C(=O)NO)c1ccc(F)cc1` [Compound 168138] gave a Ki of 390 nM.

In turn, `CO[C@H](C[C@H](CCN(C)c1cccc(Br)c1)C(=O)NO)c1ccc(F)cc1` [Compound 168000, (2S,4R)-2-(2-((3-bromophenyl)(methyl)amino)ethyl)-4-(4-fluorophenyl)-N-hydroxy-4-methoxybutanamide] had a Ki of 2800 nM.
